The record followed here is patent publication US10766902B2, “Wee-1 inhibiting pyrazolopyrimidinone compounds” (ALMAC DISCOVERY LIMITED, priority 2016, dated 2020).

One assay has as its target Wee-1 kinase (Homo sapiens (Human), UniProt P30291). Briefly: Measurement of Wee-1 kinase activity (ADP-Glo luminescence). It counts as biochemical. In short, it runs like this:
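Activated Wee-1 preincubated 30 min at RT with compound in Tris/MgCl2 buffer with BSA and DTT, then reacted 1 h at RT with poly(Lys,Tyr 4:1) (2.0 μg/mL) and 30 μM ATP as added aliquot. ADP formed measured by ADP-Glo luminescence; IC50 by non-linear regression of % inhibition.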

In assay [1] the test system is phosphorylation of Cdc2 at Tyr15. Briefly: ELISA for phosphorylation of Cdc2 at Tyr15 in HT-29 / HCT-116 cells. It counts as cell-based. The following applies: Homo sapiens, read-out: ELISA p-CDC2 EC50. The protocol: Method 2: Determining the Effect of Compounds on the Phosphorylation of Cdc2 at Tyr15
The colorectal cancer cell lines HT-29 and HCT-116 were purchased from the ATCC and routinely maintained in McCoy's Medium (Invitrogen) supplemented with 10% Foetal Calf Serum.
The cells were trypsinised from their growing vessel and counted, 100 μL of cell suspension containing 6000 cells was pipetted into black 96 well Co-star plates and incubated overnight to allow adherence to the surface at a temperature of 37° C. and an atmosphere of 5% CO2. Test compounds were formulated in DMSO and diluted in foetal calf serum supplemented medium. Incubating medium was removed by aspiration and diluted drug supplemented medium added to each well.
The plate was returned to the incubator for an additional eight hours at 37° C. and an atmosphere of 5% CO2. Post incubation, the drug supplemented medium was aspirated from each well and the cells were washed once in ice-cold phosphate buffered saline (PBS). 100 μL of cell lysis buffer (Cell Signalling Technologies #9803) containing 20 mM Tris, 150 mM NaCl, 1 mM EDTA, 1 mM EGTA, 1% Triton-X100, 2.5 mM sodium pyrophosphate, 1 mM glycerophosphate, 1 mM Na3VO4 and 1 μg/mL leupeptin was added to each well of the 96 well plate and incubated at 4° C. for 30 min. The samples on the plate were snap frozen at −80° C. until required. Immediately before the continuation of the assay, the sample plate was thawed and centrifuged at 4° C. for 10 min and the supernatant transferred to secondary tubes or 96 well plate.
Cell supernatant was mixed in a ratio of 1:1 with sample dilutent buffer and vortexed for one minute. 100 μL of diluted sample was pipetted into pre-coated plates containing a rabbit polyclonal antibody for phospho-cdc2 (Tyr15) (Cell Signalling Technologies PathScan kit #7176). The plate was sealed and incubated overnight at 4° C.
The plate seal was removed and the well contents aspirated, followed by 3×5 min washes with 200 μL of diluted wash buffer. Between each wash the plate was tapped firmly onto blotting paper to ensure the removal of all kit solution. 100 μL of kit detection antibody was added to each well and the plate re-sealed and incubated at 37° C. for 1 h. Post incubation the plate was washed and processed in a similar manner to that previously described.
100 μL of horseradish peroxidise-linked secondary antibody was added to each test well, the plate sealed and incubated for thirty minutes at 37° C. Post incubation, the plate was washed as previously stated, followed by the addition of 100 μL of 3,3′,5,5′ tetramethylbenzidine (TMB reagent). The plate was sealed and incubated at RT for 30 min.
100 μL of stop solution was added to each well and the underside of the plate wiped with a lint-free tissue, prior to spectrophotometric determination. Absorbance from each well was read at 450 nm within 30 min of the addition of the stop solution.
The percentage of phospho-cdc2 was calculated compared to DMSO control and plotted versus the concentration of inhibitor using GraphPad Prism. Data was fitted using non-linear regression analysis and IC50 values generated.
In general terms: ELISA stands for enzyme-linked immunosorbent assay.

Another assay deals with HT29 cells. Briefly: Cell viability (CellTiter-Glo), HT29. It is filed as cell-based. To be noted: Homo sapiens, HT-29; cell viability after 72 hours. The procedure: (§1) All cell lines (HT29, A427, A498, SKLU-1) were obtained from the American Type Culture Collection (ATCC), maintained in the recommended media supplemented with 10% (v/v) FBS, 1% (v/v) Penicillin/streptomycin and kept at 37° C. in a humidified atmosphere with 5% CO2. Cells were seeded in 96 wp format typically at a seeding density of 3500-5000 cells/well and treated after 24 hours with increasing concentration of compound from 0 to 100 μM in ½ log unit increments. Cell viability was assessed after 72 hours (HT29, A427) or after 6 days (SKLU-1, A498) by CellTiter-Glo® as recommended by the manufacturer's instructions (Promega). Analysis and EC50 values were derived using GraphPadPrism.
(Cellular ATP, detected with luciferase, serves as a proxy for viable cell number.)

For another assay, the system named is A427 cells. Briefly: Cell viability (CellTiter-Glo), A427. To be noted: Homo sapiens, A-427; cell viability after 72 hours. It is filed as cell-based. The protocol: as §1
In a further assay the test system is A498 cells. Briefly: Cell viability (CellTiter-Glo), A498. To be noted: Homo sapiens, A498, 144 h; cell viability after 6 days. It counts as cell-based. The protocol:
as §1

The test system of another assay is SK-LU-1 cells. Briefly: Cell viability (CellTiter-Glo), SK-LU-1. It counts as cell-based. To be noted: Homo sapiens, SK-LU-1, 144 h; cell viability after 6 days. The procedure: as §1
Setting [2] is: 8 h, Table 2, colorectal cancer cells, eight hours incubation.
Setting [3] is: Table 7, data obtained as described in the experimental section of the current invention, read-out: Wee-1/nM.

Read-outs that look alike come from different tables or passages of the source.

Sequence of Wee-1 kinase (P30291 whole entry): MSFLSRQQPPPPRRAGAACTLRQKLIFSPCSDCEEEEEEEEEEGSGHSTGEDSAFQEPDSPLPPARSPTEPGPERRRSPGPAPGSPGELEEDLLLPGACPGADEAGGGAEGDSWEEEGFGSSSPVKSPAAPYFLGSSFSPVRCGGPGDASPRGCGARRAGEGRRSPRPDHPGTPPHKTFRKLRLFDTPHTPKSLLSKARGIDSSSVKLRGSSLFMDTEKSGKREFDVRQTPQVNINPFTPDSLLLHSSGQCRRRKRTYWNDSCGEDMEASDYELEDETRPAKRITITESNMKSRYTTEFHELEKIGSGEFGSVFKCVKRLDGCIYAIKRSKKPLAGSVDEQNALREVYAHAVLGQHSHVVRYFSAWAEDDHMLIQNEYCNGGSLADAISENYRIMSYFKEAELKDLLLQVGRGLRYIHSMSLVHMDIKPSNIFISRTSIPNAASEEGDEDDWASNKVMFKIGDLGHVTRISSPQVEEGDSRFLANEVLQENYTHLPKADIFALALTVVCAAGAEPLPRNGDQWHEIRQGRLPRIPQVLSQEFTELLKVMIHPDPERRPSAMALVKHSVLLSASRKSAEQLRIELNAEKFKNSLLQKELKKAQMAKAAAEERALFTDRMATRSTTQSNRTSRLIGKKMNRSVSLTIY

On to `C=CCn1c(=O)c2cnc(Nc3ccc(N4CCO[C@H](COC)C4)cc3)nc2n1-c1cccc(N=S(C)(C)=O)n1` [Example 54, 1-(6-{[Dimethyl(oxo)-λ^6-sulfanylidene]amino}pyridin-2-yl)-6-({4-[(2S)-2-(methoxymethyl)morpholin-4-yl]phenyl}amino)-2-(prop-2-en-1-yl)-1H,2H,3H-pyrazolo[3,4-d]pyrimidin-3-one], for which the IC50 on Wee-1 kinase (read-out: Wee1 IC50) is 0.3 nM. Besides, the EC50 (commonly the concentration giving half of the maximal effect) in assay [1] (setting [2]) worked out at 5 nM; in assay [1] (Table 3), 5 nM; in the assay with HT29 cells it was 32 nM; with A427 cells, 17 nM; in the assay on A498 cells, 16 nM; in the assay on SK-LU-1 cells, 35 nM.
Take `C=CCn1c(=O)c2cnc(Nc3ccc(N4CCOCC4)cc3)nc2n1-c1cccc(N=S(C)(C)=O)n1` [Example 12, 1-(6-{[Dimethyl(oxo)-λ^6-sulfanylidene]amino}pyridine-2-yl)-6-{[4-(morpholin-4-yl)phenyl]amino}-2-(prop-2-en-1-yl)-1H,2H,3H-pyrazolo[3,4-d]pyrimidin-3-one]: the IC50 on Wee-1 kinase (setting [3]) and on Wee-1 kinase (read-out: Wee1 IC50) was 0.5 nM each time. Besides, the EC50 in assay [1] (setting [2]) came to 26 nM; in assay [1] (Table 3), 26 nM; in the assay on HT29 cells it was 27 nM; in the assay with A427 cells it was 27 nM; in the assay on A498 cells, 27 nM; in the assay with SK-LU-1 cells, 30 nM.
`C=CCn1c(=O)c2cnc(Nc3ccc(N4CCN[C@H](COC)C4)cc3)nc2n1-c1cccc(N=S(C)(C)=O)n1` [Example 76, 1-(6-{[Dimethyl(oxo)-λ^6-sulfanylidene]amino}pyridin-2-yl)-6-({4-[(3S)-3-(methoxymethyl)piperazin-1-yl]phenyl}amino)-2-(prop-2-en-1-yl)-1H,2H, 3H-pyrazolo[3,4-d]pyrimidin-3-one]: on Wee-1 kinase (read-out: Wee1 IC50), the IC50 worked out at 0.6 nM. Also, the EC50 in assay [1] (setting [2]) was 28 nM.
As to `C=CCn1c(=O)c2cnc(Nc3ccc(N(C)C)cc3)nc2n1-c1cccc(N=S(C)(C)=O)n1` [Example 57, 1-(6-{[Dimethyl(oxo)-λ^6-sulfanylidene]amino}pyridin-2-yl)-6-{[4-(dimethylamino)phenyl]amino}-2-(prop-2-en-1-yl)-1H,2H,3H-pyrazolo[3,4-d]pyrimidin-3-one], the IC50 at Wee-1 kinase (setting [3]) and at Wee-1 kinase (read-out: Wee1 IC50) was 0.2 nM throughout. Besides, the EC50 in assay [1] (setting [2]) amounted to 6 nM.
Consider `C=CCn1c(=O)c2cnc(Nc3ccc(N4CCNCC4)c(C)c3)nc2n1-c1cccc(N=S(C)(C)=O)n1` [Example 26, 1-(6-{[Dimethyl(oxo)-λ^6-sulfanylidene]amino}pyridin-2-yl)-6-{[3-methyl-4-(piperazin-1-yl)phenyl]amino}-2-(prop-2-en-1-yl)-1H,2H,3H-pyrazolo[3,4-d]pyrimidin-3-one], for which the IC50 on Wee-1 kinase (read-out: Wee1 IC50) came out at 0.4 nM. Also, the EC50 in assay [1] (setting [2]) stood at 4 nM.
